Data taken from publication PMC11525138 (The Journal of Biological Chemistry, 2024).
Where two headings read alike, the source gives them in different places.

Legend:
[1] = target: T1, NanHGH33 (Clostridium perfringens, UniProt P10481); test: biochemical; type: biochemical
[2] = target: T2, NanIGH33 (Clostridium perfringens, UniProt Q59310); test: biochemical; type: biochemical
[3] = target: T3, NanJGH33 (Clostridium perfringens, UniProt A0A0H2YT71); test: biochemical; type: biochemical
[4] = test system: C. perfringens CP1; type: cell-based, Clostridium perfringens; conditions: for Doubling Time: without DANA 0.762; for k (rate constant) of exponential growth: without DANA 0.909 ± 0.098
[5] = target: T1, NanHGH33; type: biochemical
[6] = target: T2, NanIGH33; type: biochemical
[7] = target: T3, NanJGH33; type: biochemical
[8] = target: T1, NanHGH33; type: biochemical; conditions: pH 4.5
[9] = target: T2, NanIGH33; type: biochemical; conditions: pH 4.5
[10] = target: T3, NanJGH33; type: biochemical; conditions: pH 4.5

T3 sequence (A0A0H2YT71 373-820 limits assumed): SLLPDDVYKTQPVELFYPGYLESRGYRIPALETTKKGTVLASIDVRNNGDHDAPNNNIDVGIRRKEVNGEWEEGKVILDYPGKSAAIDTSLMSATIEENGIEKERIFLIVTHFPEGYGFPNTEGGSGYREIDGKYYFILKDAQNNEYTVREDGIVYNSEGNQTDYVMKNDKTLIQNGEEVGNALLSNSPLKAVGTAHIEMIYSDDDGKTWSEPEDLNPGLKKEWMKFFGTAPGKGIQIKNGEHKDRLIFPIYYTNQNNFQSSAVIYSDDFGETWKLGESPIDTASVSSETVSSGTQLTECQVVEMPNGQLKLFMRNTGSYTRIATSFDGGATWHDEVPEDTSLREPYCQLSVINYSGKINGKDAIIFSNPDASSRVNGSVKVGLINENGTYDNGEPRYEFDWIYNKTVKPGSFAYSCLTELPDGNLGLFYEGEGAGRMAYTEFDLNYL
T1 sequence (P10481 whole entry, looked up): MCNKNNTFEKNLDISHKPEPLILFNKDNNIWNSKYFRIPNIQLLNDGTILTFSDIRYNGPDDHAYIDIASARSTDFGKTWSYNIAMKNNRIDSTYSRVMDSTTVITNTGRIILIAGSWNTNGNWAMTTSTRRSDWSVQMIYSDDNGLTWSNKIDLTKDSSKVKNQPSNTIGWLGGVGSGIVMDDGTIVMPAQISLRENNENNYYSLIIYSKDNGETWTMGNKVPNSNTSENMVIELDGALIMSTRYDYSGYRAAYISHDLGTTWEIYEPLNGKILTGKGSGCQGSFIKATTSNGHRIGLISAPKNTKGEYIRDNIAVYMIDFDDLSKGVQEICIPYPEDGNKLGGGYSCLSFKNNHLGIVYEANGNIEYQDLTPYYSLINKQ
T2 sequence (Q59310 243-694 limits assumed): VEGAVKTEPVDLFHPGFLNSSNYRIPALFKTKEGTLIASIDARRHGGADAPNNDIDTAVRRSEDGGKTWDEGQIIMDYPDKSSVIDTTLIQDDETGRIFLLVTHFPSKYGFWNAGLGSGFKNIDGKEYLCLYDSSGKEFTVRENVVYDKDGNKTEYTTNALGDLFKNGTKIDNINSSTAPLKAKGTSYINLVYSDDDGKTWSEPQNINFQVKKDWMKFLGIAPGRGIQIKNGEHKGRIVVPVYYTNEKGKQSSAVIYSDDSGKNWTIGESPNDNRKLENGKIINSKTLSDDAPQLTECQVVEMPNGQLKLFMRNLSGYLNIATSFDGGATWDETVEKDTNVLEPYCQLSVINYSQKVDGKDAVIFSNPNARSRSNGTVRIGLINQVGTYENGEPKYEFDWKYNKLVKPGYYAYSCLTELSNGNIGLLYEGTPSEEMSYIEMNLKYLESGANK

SMILES: CCOC(=O)C1=C[C@@H](OC(CC)CC)[C@H](NC(C)=O)[C@@H](N)C1 [Oseltamivir, (3R,4R,5S)-4-acetamido-5-amino-3-(1-ethylpropoxy)-1-cyclohexene-1-carboxylic acid ethyl ester]
- Ki [1]: > 100 µM
- inhibition of NanHGH33 (in words) [1]: did not display any detectable inhibition
- Ki [2]: > 100 µM
- inhibition of NanIGH33 (in words) [2]: did not display any detectable inhibition
- Ki [3]: > 100 µM
- inhibition of NanJGH33 (in words) [3]: did not display any detectable inhibition

SMILES: CC(=O)N[C@H]1[C@H]([C@H](O)[C@H](O)CO)OC(C(=O)O)=C[C@@H]1O [DANA, N-acetyl-2,3-dehydro-2-deoxyneuraminic acid]
- Ki ([1]; pH 7, read-out: Ki): 33.9 ± 4.4 µM
- Ki ([2]; pH 6.5, read-out: Ki): 3.1 ± 0.5 µM
- Ki ([3]; pH 6.8, read-out: Ki): 3.2 ± 0.3 µM
- effect on growth of C. perfringens in the presence of 3′SL ([4]; 0.5% 3′SL as substrate, 1 mM DANA required for a clear effect): reduce the growth
- Doubling Time ([4]; 3'SL + 0.01 mM DANA): 0.571 h
- k (rate constant) of exponential growth ([4]; 3'SL + 0.01 mM DANA): 1.214 ± 0.085
- Doubling Time ([4]; 3'SL + 0.1 mM DANA): 0.576 h
- k (rate constant) of exponential growth ([4]; 3'SL + 0.1 mM DANA): 1.202 ± 0.066
- Doubling Time ([4]; 3'SL + 1 mM DANA): 1.725 h
- k (rate constant) of exponential growth ([4]; 3'SL + 1 mM DANA): 0.402 ± 0.019
- effect on C. perfringens consumption of 3′-SL ([4]; 24 h culture supernatants, HPAEC-PAD quantification): protect against C. perfringens consumption of 3′-SL
- reduction of growth of C. perfringens with glucose as the sole carbohydrate source ([4]; glucose as sole carbohydrate source, data not shown): not
- lactose released from 3′- and 6′-SL in the presence of inhibitor [5]: reduced the amount of lactose released
- lactose released from 3′- and 6′-SL in the presence of inhibitor [6]: reduced the amount of lactose released
- lactose released from 3′- and 6′-SL in the presence of inhibitor [7]: reduced the amount of lactose released

SMILES: CC(=O)N[C@H]1[C@H]([C@H](O)[C@H](O)CO)OC(C(=O)O)=C[C@@H]1N=C(N)N [Zanamivir, 4-guanidino-2,4-dideoxy-2,3-dehydro-N-acetylneuraminic acid]
- Ki [1]: > 100 µM
- inhibition of NanHGH33 (in words) [1]: did not display any detectable inhibition
- Ki [2]: > 100 µM
- inhibition of NanIGH33 (in words) [2]: did not display any detectable inhibition
- Ki [3]: > 100 µM
- inhibition of NanJGH33 (in words) [3]: did not display any detectable inhibition

SMILES: CC(=O)N[C@H]1[C@H]([C@H](O)[C@H](O)CO)O[C@@](OC[C@H]2O[C@@H](O[C@H]3[C@H](O)[C@@H](O)[C@H](O)O[C@@H]3CO)[C@H](O)[C@@H](O)[C@H]2O)(C(=O)O)C[C@@H]1O [6′-SL, 6′-sialyllactose]
- hydrolysis of substrate in competition assay (in words) [8]: did not show any significant capacity to hydrolyze
- hydrolysis of substrate in competition assay (in words) [9]: roughly equal rates
- hydrolysis of substrate in competition assay (in words) [10]: processed both substrates very rapidly

SMILES: CC(=O)N[C@H]1[C@H]([C@H](O)[C@H](O)CO)O[C@@](Oc2c[nH]c3ccc(Br)c(Cl)c23)(C(=O)O)C[C@@H]1O [X-Neu5Ac, 5-bromo-4-chloro-3-indolyl α-D-N-acetylneuraminic acid]
- Km ([1]; pH 7): 280 ± 62.7 µM
- kcat ([1]; pH 7): 13.3 ± 1.2 s⁻¹
- Km ([2]; pH 6.5): 123 ± 25.4 µM
- Vmax ([2]; pH 6.5): 0.09 ± 0.01 µM/s
- kcat ([2]; pH 6.5): 9.2 ± 0.6 s⁻¹
- kcat/Km of NanJGH33 relative to NanHGH33 [3]: ~3.6 fold
- kcat/Km of NanJGH33 relative to NanIGH33 [3]: approximately 2 fold
- Km ([3]; pH 6.8): 87 ± 10.7 µM
- kcat ([3]; pH 6.8): 15.3 ± 0.6 s⁻¹

SMILES: CC(=O)N[C@H]1[C@H]([C@H](O)[C@H](O)CO)O[C@@](O[C@H]2[C@@H](O)[C@@H](CO)O[C@@H](O[C@H]3[C@H](O)[C@@H](O)C(O)O[C@@H]3CO)[C@@H]2O)(C(=O)O)C[C@@H]1O (stereo partly drawn) [3′-SL, 3′-sialyllactose]
- hydrolysis of substrate in competition assay (in words) [8]: hydrolyzed
- hydrolysis of substrate in competition assay (in words) [9]: roughly equal rates
- hydrolysis of substrate in competition assay (in words) [10]: processed both substrates very rapidly

SMILES: CC(=O)N[C@H]1NC[C@H](C(=O)O)[C@H](O)[C@@H]1O [Siastatin B, (3S, 4S, 5R, 6R)-6-(acetylamino)-4,5-dihydroxy-3-piperidinecarboxylic acid]
- Ki [1]: 125 ± 16.2 µM
- Ki [2]: 10.7 ± 2 µM
- Ki [3]: 13.3 ± 1.6 µM
